Results from ChEMBL document CHEMBL1201862, “PubChem BioAssay data set” (2004).
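Compound exposure: 48 hours, 5 concentrations, 96-well plates. Here, GI50 denotes the concentration required for 50% inhibition of growth.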 Active and inactive are the calls of the source. Rule as the data show it: active = GI50 up to about 1.1 µM and inactive = higher.

Tests used:
Test in all cases: NCI-60 cell line screen, 48 h
[1] = test system: OVCAR-4
[2] = test system: SW-620
[3] = test system: MDA-N
[4] = test system: NCI-H226
[5] = test system: RXF 393
[6] = test system: MDA-MB-231
[7] = test system: A549
[8] = test system: SF-539
[9] = test system: HCT-116
[10] = test system: HCC 2998
[11] = test system: SNB-19
[12] = test system: UACC-257
[13] = test system: KM12
[14] = test system: ACHN
[15] = test system: UACC-62
[16] = test system: CAKI-1
[17] = test system: SK-MEL-5
[18] = test system: SF-268
[19] = test system: HOP-92
[20] = test system: OVCAR-5
[21] = test system: TK-10
[22] = test system: Malme-3M
[23] = test system: DU-145
[24] = test system: MCF7
[25] = test system: PC-3
[26] = test system: 786-0
[27] = test system: A498
[28] = test system: EKVX
[29] = test system: SF-295
[30] = test system: Hs-578T
[31] = test system: NCI/ADR-RES
[32] = test system: COLO 205
[33] = test system: U-251
[34] = test system: NCI-H522
[35] = test system: SN12C
[36] = test system: NCI-H23
[37] = test system: UO-31
[38] = test system: NCI-H460
[39] = test system: SR
[40] = test system: HL-60
[41] = test system: M14
[42] = test system: SK-MEL-28
[43] = test system: OVCAR-3
[44] = test system: SK-OV-3
[45] = test system: CCRF-CEM
[46] = test system: RPMI-8226
[47] = test system: LOX IMVI
[48] = test system: HT-29
[49] = test system: SK-MEL-2
[50] = test system: IGROV-1
[51] = test system: K562
[52] = test system: HOP-62
[53] = test system: BT-549
[54] = test system: MDA-MB-435
[55] = test system: MOLT-4

Measured: GI50

C=C(Cl)C(=C)CCC(Cl)C(C)C (stereo not given)
inactive: [1] > 100 µM | [2] > 100 µM | [3] > 100 µM | [4] > 100 µM | [5] > 100 µM | [6] > 100 µM | [7] > 100 µM | [8] > 100 µM | [9] > 100 µM | [10] > 100 µM | [11] > 100 µM | [12] > 100 µM | [13] > 100 µM | [14] > 100 µM | [15] > 100 µM | [16] > 100 µM | [17] > 100 µM | [18] > 100 µM | [19] > 100 µM | [20] > 100 µM | [21] > 100 µM | [22] > 100 µM | [23] > 100 µM | [24] > 100 µM | [25] > 100 µM | [26] > 100 µM | [27] > 100 µM | [28] > 100 µM | [29] > 100 µM | [30] > 100 µM | [31] > 100 µM | [32] > 100 µM | [33] > 100 µM | [34] > 100 µM | [35] > 100 µM | [36] > 100 µM | [37] > 100 µM | [38] > 100 µM | [39] > 100 µM | [40] > 100 µM | [41] > 100 µM | [42] > 100 µM | [43] > 100 µM | [44] > 100 µM | [45] > 100 µM | [46] > 100 µM | [47] > 100 µM | [48] > 100 µM | [49] > 100 µM | [50] > 100 µM | [51] > 100 µM | [52] > 100 µM | [53] > 100 µM | [54] > 100 µM | [55] > 100 µM
